Measurements from paper PMC2785710 (Bioorganic & medicinal chemistry letters, 2009).

Test: in vitro metabolic stability in pooled mouse liver microsomes
Type: in vitro ADME
Settings: for half-life: t1/2, mouse liver microsomes

Structure (SMILES)	half-life [min]	microsomal CLint [µL/min/mg]
O=C(Nc1ccccc1Cl)c1cnc2ccc(C3CCNCC3)cn12.O=C(O)C(=O)O [Compound 32]	348	–
O=C(Nc1ccccc1Cl)c1cnn2ccc(-c3ccccc3)cc12 [Compound 54]	27	51 ± 2.1
O=C(Nc1ccccc1Cl)c1cnn2ccc(N3CCCCC3)cc12 [Compound 58]	8.3	167 ± 4.2
O=C(Nc1ccccc1Cl)c1cnc2ccccn12 [Compound 69]	3.8	361 ± 64
O=C(Nc1ccccc1Cl)c1cnc2ccc(-c3ccccc3)cn12 [Compound 70]	53	26 ± 0.8
O=C(Nc1ccccc1Cl)c1cnc2ccc(N3CCCCC3)cn12 [Compound 71]	20	71 ± 2
